Measurements published in patent US7138361B2, “Herbicidal heterocycles” (E. I. du Pont de Nemours and Company, priority 2000, dated 2006).

Legend:
Type in all cases: in vivo
[1] = test system: Sunflower; assay: Test C preemergence; conditions: scale 0 to 100, 0 no effect, 100 complete control
[2] = test system: barnyardgrass (Echinochloa crus-galli); assay: Test B flooded paddy test; conditions: Rate 1000 g/ha, scale of 0 to 100 where 0 is no effect and 100 is complete control, visually evaluated after 13 to 15 days
How it was run: (§1)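 Visual rating on a 0–100 scale, where 100 is complete control, made after 13 to 15 days in a greenhouse by comparison with untreated controls. Species treated in the flooded paddy were at the 2-leaf stage: barnyardgrass, duck salad, smallflower flatsedge and rice.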

[3] = test system: smallflower flatsedge (Cyperus difformis); assay: Test B flooded paddy test; conditions: Rate 1000 g/ha, scale of 0 to 100 where 0 is no effect and 100 is complete control, visually evaluated after 13 to 15 days
How it was run: as §1

[4] = test system: rice (Oryza saliva); assay: Test B flooded paddy test; conditions: Rate 1000 g/ha, scale of 0 to 100 where 0 is no effect and 100 is complete control, visually evaluated after 13 to 15 days
How it was run: as §1

[5] = test system: duck salad (Heteranthera limosa); assay: Test B flooded paddy test; conditions: Rate 1000 g/ha, scale of 0 to 100 where 0 is no effect and 100 is complete control, visually evaluated after 13 to 15 days
How it was run: as §1

[6] = test system: giant foxtail (Setaria faberii); assay: Test C postemergence
How it was run: (§2)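 Preemergence: seeds sown then treated. Postemergence: plants 2–18 cm, 1- to 4-leaf. Both with surfactant-containing solvent formulation; visual injury scored 0–100 after 12–14 d.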

[7] = test system: johnsongrass (Sorghum halepense); assay: Test C postemergence
How it was run: as §2

[8] = test system: soybean (Glycine max); assay: Test C postemergence
How it was run: as §2

[9] = test system: crabgrass (Digitaria sanguinalis); assay: Test C postemergence
How it was run: as §2

[10] = test system: lambsquarters (Chenopodium album); assay: Test C postemergence
How it was run: as §2

[11] = test system: kochia (Kochia scoparia); assay: Test C postemergence
How it was run: as §2

[12] = test system: common ragweed (Ambrosia elatior); assay: Test C postemergence
How it was run: as §2

[13] = test system: Surinam grass (Brachiaria decumbens); assay: Test C postemergence
How it was run: as §2

[14] = test system: bermudagrass (Cynodon dactylon); assay: Test C postemergence
How it was run: as §2

[15] = test system: pigweed (Amaranthus retroflexus); assay: Test C postemergence
How it was run: as §2

[16] = test system: chickweed (Stellaria media); assay: Test C postemergence; conditions: Rate 125 g/ha, scale 0 to 100, 0 no effect, 100 complete control
How it was run: as §2

[17] = test system: morningglory (Ipomoea hederacea); assay: Test C postemergence
How it was run: as §2

[18] = test system: goosegrass (Eleusine indica); assay: Test C postemergence
How it was run: as §2

[19] = test system: corn (Zea mays); assay: Test C postemergence
How it was run: as §2

[20] = test system: cocklebur (Xanthium strumarium); assay: Test C postemergence
How it was run: as §2

[21] = test system: yellow nutsedge (Cyperus esculentus); assay: Test C postemergence
How it was run: as §2

[22] = test system: velvetleaf (Abutilon theophrasti); assay: Test C postemergence
How it was run: as §2

[23] = test system: woolly cupgrass (Eriochloa villosa); assay: Test C postemergence
How it was run: as §2

[24] = Rate 250 g/ha, scale 0 to 100 (0 no effect, 100 complete control)
[25] = Rate 500 g/ha, scale 0 to 100 (0 no effect, 100 complete control)
[26] = Rate 125 g/ha, scale 0 to 100, 0 no effect, 100 complete control

CC(C)(C)c1ccn(C2CCN(c3cccc(C(F)(F)F)c3)C2=S)n1 (centres unmarked) [Compound 22]
Plant response rating, Sunflower ([1]; Rate 125 g/ha): 0
Plant response rating, Barnyardgrass [2]: 100
Plant response rating, Flatsedge [3]: 100
Plant response rating, Rice [4]: 90
Plant response rating, Ducksalad [5]: 100

CCC(C)c1ccn(C2CCN(c3ccc(Br)c(OC)c3)C2=O)n1 (centres unmarked) [Compound 142]
Plant response rating, Sunflower ([1]; Rate 250 g/ha): 80
Plant response rating, Foxtail, Giant ([6]; Rate 62 g/ha, scale 0 to 100): 90
Plant response rating, Foxtail, Giant [6, 24]: 90
Plant response rating, Foxtail, Giant [6, 25]: 90
Plant response rating, Johnsongrass ([7]; Rate 62 g/ha, scale 0 to 100): 20
Plant response rating, Johnsongrass [7, 24]: 30
Plant response rating, Johnsongrass [7, 25]: 30
Plant response rating, Johnsongrass ([7]; rate not given, scale 0 to 100): 30
Plant response rating, Soybean ([8]; Rate 62 g/ha, scale 0 to 100): 60
Plant response rating, Soybean [8, 24]: 90
Plant response rating, Soybean [8, 25]: 90
Plant response rating, Crabgrass ([9]; Rate 62 g/ha, scale 0 to 100): 40
Plant response rating, Crabgrass [9, 24]: 70
Plant response rating, Crabgrass [9, 25]: 70
Plant response rating, Lambsquarters ([10]; Rate 62 g/ha, scale 0 to 100): 80
Plant response rating, Lambsquarters [10, 24]: 100
Plant response rating, Lambsquarters [10, 25]: 100
Plant response rating, Kochia ([11]; Rate 62 g/ha, scale 0 to 100): 40
Plant response rating, Kochia [11, 24]: 90
Plant response rating, Kochia [11, 25]: 90
Plant response rating, Ragweed, Common ([12]; Rate 62 g/ha, scale 0 to 100): 50
Plant response rating, Ragweed, Common [12, 24]: 90
Plant response rating, Ragweed, Common [12, 25]: 100
Plant response rating, Surinam grass ([13]; Rate 62 g/ha, scale 0 to 100): 20
Plant response rating, Surinam grass [13, 26]: 30
Plant response rating, Surinam grass [13, 24]: 30
Plant response rating, Surinam grass [13, 25]: 30
Plant response rating, Bermudagrass ([14]; Rate 62 g/ha, scale 0 to 100): 30
Plant response rating, Bermudagrass [14, 26]: 40
Plant response rating, Bermudagrass [14, 24]: 60
Plant response rating, Bermudagrass [14, 25]: 80
Plant response rating, Pigweed ([15]; Rate 62 g/ha, scale 0 to 100): 80
Plant response rating, Pigweed [15, 24]: 90
Plant response rating, Pigweed [15, 25]: 90
Plant response rating, Chickweed [16]: 100
Plant response rating, Morningglory ([17]; Rate 62 g/ha, scale 0 to 100): 20
Plant response rating, Morningglory [17, 24]: 100
Plant response rating, Morningglory [17, 25]: 100
Plant response rating, Goosegrass ([18]; Rate 62 g/ha, scale 0 to 100): 30
Plant response rating, Goosegrass [18, 24]: 50
Plant response rating, Goosegrass [18, 25]: 70
Plant response rating, Corn ([19]; Rate 62 g/ha, scale 0 to 100): 0
Plant response rating, Corn [19, 24]: 0
Plant response rating, Corn [19, 25]: 20
Plant response rating, Corn ([19]; scale 0 to 100): 0
Plant response rating, Cocklebur ([20]; Rate 62 g/ha, scale 0 to 100): 30
Plant response rating, Cocklebur [20, 24]: 90
Plant response rating, Cocklebur [20, 25]: 90
Plant response rating, Nutsedge ([21]; Rate 62 g/ha, scale 0 to 100): 0
Plant response rating, Nutsedge [21, 24]: 0
Plant response rating, Nutsedge [21, 25]: 20
Plant response rating, Velvetleaf ([22]; Rate 62 g/ha, scale 0 to 100): 50
Plant response rating, Velvetleaf [22, 24]: 80
Plant response rating, Velvetleaf [22, 25]: 80
Plant response rating, Velvetleaf ([22]; scale 0 to 100): 70
Plant response rating, Cupgrass, Woolly ([23]; Rate 62 g/ha, scale 0 to 100): 40
Plant response rating, Cupgrass, Woolly [23, 24]: 50
Plant response rating, Cupgrass, Woolly [23, 25]: 70

Cc1cc(C)nc(N2CCC(n3ccc(C(C)(C)C)n3)C2=O)c1 (centres unmarked) [Compound 138]
Plant response rating, Sunflower ([1]; Rate 250 g/ha): 50
Plant response rating, Barnyardgrass [2]: 100
Plant response rating, Flatsedge [3]: 90
Plant response rating, Rice [4]: 90
Plant response rating, Ducksalad [5]: 90
